Measured values: the supplement of paper PMC6045584
± gives the standard deviation of the averaged measurements.

Experiments:
[1] = compound: Cc1nc(Nc2ncc(C(=O)Nc3c(C)cccc3Cl)s2)cc(N2CCN(CCO)CC2)n1 [DASATINIB]; assay: surviving fraction relative to DMSO-only wells; higher = less growth inhibition; settings: exposure time: 5 days
Outline: (§1)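 Log-phase tumour cell lines, 250–500 cells per well in 384-well plates, received inhibitors at 0.5, 1, 5, 10, 50, 100, 500 and 1000 nM continuously for five days, starting 24 hours after seeding. Viability was quantified with CellTiter-Glo luminescence and normalised to the median of DMSO-only wells to give surviving fraction. Three screens were run per line, and a line stayed in only with replicate Pearson r >0.7 and median Z' >0.3.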

[2] = compound: T1, CN1CCN(c2nc(C3=C(c4c[nH]c5ccccc45)C(=O)NC3=O)c3ccccc3n2)CC1 [SOTRASTAURIN/AEB071]; assay: as above; settings: exposure time: 5 days
Outline: as §1

[3] = compound: CNCc1ccc(-c2[nH]c3cc(F)cc4c3c2CCNC4=O)cc1; assay: area under dose-response curve of surviving fraction (unscaled, Aref=0) (surviving fraction x log10(nM)); higher = more resistant; settings: exposure time: 5 days; dose range 0.5-1000 nM
Outline: (§2)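 Each tumour cell line was screened three times in 384-well plates, receiving eight inhibitor concentrations from 0.5 to 1000 nM for five days. CellTiter-Glo luminescence gave viability, normalised to DMSO-only wells. Using the drc R package, surviving fractions were fitted with 3-parameter logistic dose-response curves, and the unscaled activity area over log10 dose (Aref = 0) was taken as the area under the curve.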

[4] = compound: C[C@]12CC[C@H](O)CC1=CC[C@@H]1[C@@H]2CC[C@]2(C)C(c3cccnc3)=CC[C@@H]12 [ABIRATERONE]; assay: as above; settings: exposure time: 5 days; dose range 0.5-1000 nM
Outline: as §2

[5] = compound: CCn1c(C(=O)N(C2CC2)C2CC2)cc2c3c(ncn3C)c(Nc3cc(C)n(C)n3)nc21; assay: as above; settings: exposure time: 5 days; dose range 0.5-1000 nM
Outline: as §2

[6] = compound: T1, SOTRASTAURIN/AEB071; assay: as above; settings: exposure time: 5 days; dose range 0.5-1000 nM
Outline: as §2

| Test System | surviving fraction ([1]; 0.5 nM) | surviving fraction ([1]; 1 nM) | surviving fraction ([1]; 5 nM) | surviving fraction ([1]; 10 nM) | surviving fraction ([1]; 50 nM) | surviving fraction ([1]; 100 nM) | surviving fraction ([1]; 500 nM) | surviving fraction ([1]; 1000 nM) | surviving fraction ([2]; 0.5 nM) | surviving fraction ([2]; 1 nM) | surviving fraction ([2]; 5 nM) | surviving fraction ([2]; 10 nM) | surviving fraction ([2]; 50 nM) | surviving fraction ([2]; 100 nM) | surviving fraction ([2]; 500 nM) | surviving fraction ([2]; 1000 nM) | area under dose-response curve [3] | area under dose-response curve [4] | area under dose-response curve [5] | area under dose-response curve [6] |
| --- | --- | --- | --- | --- | --- | --- | --- | --- | --- | --- | --- | --- | --- | --- | --- | --- | --- | --- | --- | --- |
| DU4475 BREAST | 0.824 ± 0.17 | 0.828 ± 0.09 | 0.802 ± 0.1 | 0.689 ± 0.21 | 0.658 ± 0.031 | 0.748 ± 0.15 | 0.669 ± 0.2 | 0.514 ± 0.083 | 1.02 ± 0.16 | 1.2 ± 0.081 | 1.05 ± 0.038 | 0.986 ± 0.027 | 0.989 ± 0.068 | 1.08 ± 0.068 | 0.901 ± 0.24 | 0.844 ± 0.038 | 2.68 | 3.18 | 2.83 | – |
| HCC202 BREAST | 0.999 ± 0.37 | 1.23 ± 0.21 | 0.816 ± 0.2 | 0.907 ± 0.31 | 0.697 ± 0.21 | 0.722 ± 0.042 | 0.509 ± 0.019 | 0.505 ± 0.21 | 1.17 ± 0.19 | 1.354 ± 0.0028 | 1.39 ± 0.86 | 1.05 ± 0.41 | 0.774 ± 0.33 | 0.88 ± 0.36 | 1.19 ± 0.05 | 1.123 ± 0.005 | – | 3.88 | 4.17 | – |
| HCC1954 BREAST | 0.362 ± 0.011 | 0.325 ± 0.035 | 0.282 ± 0.0039 | 0.351 ± 0.006 | 0.309 ± 0.022 | 0.173 ± 0.021 | 0.148 ± 0.0028 | 0.104 ± 0.019 | 1.1 ± 0.09 | 1.1 ± 0.08 | 1.2 ± 0.11 | 1.19 ± 0.27 | 0.63 ± 0.2 | 0.682 ± 0.12 | 0.502 ± 0.072 | 0.674 ± 0.16 | 2.54 | – | 2.83 | 2.92 |
| HU09 BONE | 0.863 ± 0.056 | 0.845 ± 0.025 | 0.805 ± 0.086 | 0.75 ± 0.056 | 0.392 ± 0.051 | 0.214 ± 0.019 | 0.129 ± 0.007 | 0.12 ± 0.018 | 0.957 ± 0.092 | 1.03 ± 0.088 | 1.08 ± 0.075 | 1.1 ± 0.075 | 0.898 ± 0.085 | 0.929 ± 0.11 | 0.851 ± 0.026 | 0.925 ± 0.11 | 3.06 | 3.7 | 3.49 | – |
